# Results taken from patent US11274332B2, “Methods of administering 3,4-diaminopyridine” (SERB SA, priority 2011, dated 2022).
# Experiment: Example 18: safety and tolerability in slow and fast acetylators
# Type: in vivo, human
# From the text: The primary objective of the study was to assess the safety and tolerability of 3,4-DAP phosphate after single and multiple doses. The secondary objectives of the study were • Part 1 only: To determine the dose-related PK profile of amifampridine and of 3-N-acetyl amifampridine after single, escalating doses of 3,4-DAP phosphate • Part 2 only: To assess the steady-state plasma PK and accumulation of amifampridine and of 3-N-acetyl amifampridine over multiple days of dosing with 3,4-DAP phosphate An exploratory objective was to examine the overall activity of the N-acetyl transferase enzymes on the metabolism of amifampridine by assessing the PK of amifampridine and 3-N-acetyl amifampridine with phenotypic acetylation activity and genotyping determination of NAT2 gene polymorphisms. Study Design and Plan
# Part 1 was a dose-proportionality study in 12 healthy subjects each receiving 4 ascending single oral doses of 3,4-DAP phosphate in a sequential manner (5 mg, 10 mg, 20 mg, and 30 mg). For all 12 subjects, the first 3 doses of oral 3,4-DAP phosphate (5-20 mg) were administered on 3 consecutive days (Days 1-3). Two fast and two slow acetylators (as defined by a caffeine challenge test in Example 15a) were selected as the first 4 enrolled subjects (sentinel subjects). For the 2 fast acetylators the 30 mg dose was administered on Day 4. […] Safety and tolerability data collected for all 4 subjects were reviewed and the safety and tolerability results of the 30 mg dose for these 4 sentinel subjects were acceptable. The 30 mg dose was given to the remaining 8 non-sentinel subjects on Day 7. Sentinel and non-sentinel subjects were released from the clinic on Day 5, Day 6, and Day 8 respectively, with all subjects returning for follow-tip assessments 2-4 days following their last dose.
# Part 2, Group 1: Four sentinel subjects were selected after determining their acetylator status. Two were fast acetylators and two were slow acetylators. All four were dosed on Day 1 with 4 oral doses of 20 mg of 34-DAP phosphate (given at 4-hour dosing intervals). On Days […] and 2, safety and tolerability data was collected. Subjects left the clinic on Day 2. The safety and tolerability data collected for these 4 sentinel subjects were reviewed. The safety and tolerability results of Days 1 and 2 for these subjects were acceptable and thus Part 2 Group 2 was commenced. Minimally acceptable safety was defined as the absence of clinical seizure activity. Subjects in Group 1 returned to the clinic for their follow-up assessments 2-4 days following their last dose.
# Each subject was given a final morning dose of 20 mg 3,4-DAP phosphate on Day 4. Subjects in Group 2 returned to the clinic for their follow-up assessments 2-4 days following their last dose.
# Safety assessments: During the assessment period, the following safety measures were evaluated: vital signs, adverse events (AEs), 12-lead ECG, EEG and clinical laboratory tests.
# Safety: Safety was assessed by the incidence of AEs, as well as changes in vital signs, 12-lead ECG, EEG, and clinical laboratory evaluations.
# Safety: All subjects who received any amount of study drug in either Part 1 or Part 2 of this study and had post-dose safety information were included in the safety analyses. Safety was evaluated separately for Part 1 and Part 2 and was summarized by dose levels where appropriate. All verbatim AE terms were coded using Medical Dictionary for Regulatory Activities (MedDRA) terminology. Only treatment-emergent AEs (i.e., AEs with a start date on or after the first dose of study drug) were summarized. The incidence of AEs and SAEs were summarized for each study part by dose level, system, organ, class, preferred term, relationship to study drug, and severity. No deaths during the study, no discontinuations of study drug, and no withdrawals from the study and study drug due to an AE were observed.
compound,measurement,setting,value
"Nc1ccncc1N.O=P(O)(O)O [amifampridine phosphate, 3,4-diaminopyridine phosphate]",seizures,"Part 1, 30 mg dose, sentinel subjects",No seizures were seen
same,phenotype in which drug-related adverse events were observed,"Part 1, single doses 5-30 mg",observed in slow acetylators only
same,drug-related adverse events: % of subjects,"Part 2, fast acetylators (7)",43%
same,drug-related adverse events: events,"Part 2, fast acetylators (7)",six
same,drug-related adverse events: subjects,"Part 2, fast acetylators (7)",3
same,drug-related adverse events: % of subjects,"Part 2, slow acetylators (7)",86%
same,drug-related adverse events: events,"Part 2, slow acetylators (7)",Forty-five
same,drug-related adverse events: subjects,"Part 2, slow acetylators (7)",6
same,seizures,"Part 2 Group 1, 20 mg x 4 on Day 1",No seizures occurred
same,serious adverse events,Parts 1 and 2,no serious adverse events
same,severity of treatment-emergent adverse events,Parts 1 and 2,mild and transient
